Consider 44 compounds from US20250099448A1, “HETEROCYCLIC COMPOUNDS” (Hoffmann-La Roche Inc., priority 2022, published 2025).

pIC50: −log10 of the molar value.

The test has as its target T1, MAGL protein (Homo sapiens, UniProt Q99685).
T1 sequence (Q99685 1-303): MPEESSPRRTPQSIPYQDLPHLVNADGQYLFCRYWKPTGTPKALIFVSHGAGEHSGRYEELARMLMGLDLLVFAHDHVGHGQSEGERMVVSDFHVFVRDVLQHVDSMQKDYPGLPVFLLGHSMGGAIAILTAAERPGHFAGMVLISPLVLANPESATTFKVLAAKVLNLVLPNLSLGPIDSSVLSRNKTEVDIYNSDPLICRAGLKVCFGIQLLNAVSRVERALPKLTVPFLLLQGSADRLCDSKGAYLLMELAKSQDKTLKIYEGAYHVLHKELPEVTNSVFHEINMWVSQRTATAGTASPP
The experiment in a line: 2-AG assay: MAGL inhibitory activity by hydrolysis of 2-arachidonoylglycerol to arachidonic acid, followed by mass spectrometry. The class given is biochemical. Conditions: 8 μM 2-arachidonoylglycerol, 15 min preincubation, 30 min reaction at RT, RapidFire MS readout. A digest of the protocol: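 Activity was measured by RapidFire SPE–triple-quad MS as the ratio of arachidonic acid to d8-arachidonic acid after 2-AG hydrolysis (8 μM substrate, 30 min, RT, acetonitrile quench). Compounds, tested from 12.5 μM down to […], were first preincubated 15 min with MAGL in TRIS/EDTA/Tween-20 buffer containing 2.5% DMSO.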
With `O=C(N1CC(c2ccc(N3CCC(O)(C(F)(F)F)C3)nc2)C1)N1CC2(CC(c3nnc(C4CC4)[nH]3)C2)C1` (centres unmarked) [compound 269], the negative logarithm of the IC50 (pIC50) (in general, the negative decadic logarithm of the IC50, by convention in mol/L) is 8.64. The compound `O=C(N1CC(c2ccc(NC3(C(F)(F)F)CC3)nc2)C1)N1CC2(CC(c3nnc(C4(O)CC4)[nH]3)C2)C1` [compound 272] had a pIC50 of 8.44. For `O=C(N1CC(c2ccc(NC3(C(F)(F)F)CC3)nc2)C1)N1CC2(CC(c3nnc(C4CCC4)[nH]3)C2)C1` [compound 273] the value was 7.97; for `O=C(N1CC(c2ccc(NC3(C(F)(F)F)CC3)cc2)C1)N1CC2(CC(c3nnc(C4CC4)[nH]3)C2)C1` [compound 274], 9.64; for `O=C(N1CC(c2ccc(N3CC(O)(C(F)(F)F)C3)nc2)C1)N1CC2(CC(c3nnc(C4CC4)[nH]3)C2)C1` [compound 275], 8.68. Then `CC(C)c1cc(C(C)C)n(-c2ccc(C3CN(C(=O)N4CC5(CC(c6nnc(C7CC7)[nH]6)C5)C4)C3)cc2)n1` [compound 276], with 9.77. For `Cc1cc(C(C)(C)C)nn1-c1ccc(C2CN(C(=O)N3CC4(CC(c5nnc(C6CC6)[nH]5)C4)C3)C2)cc1` [compound 277] the value was 9.77. `Cc1cc(C(F)(F)F)nn1-c1ccc(C2CN(C(=O)N3CC4(CC(c5nnc(C6CC6)[nH]5)C4)C3)C2)cc1` [compound 278] gave a pIC50 of 9.52.

Regarding `O=C(N1CC2(CCN(c3ncc(Cl)cc3F)CC2)C1)N1CC2(CC(c3nnc(C4CC4)[nH]3)C2)C1` [compound 281], the negative-log IC50 (pIC50) was 8.99.

Take `O=C(N1CC(c2ccc(C3CC(C(F)F)C3)cc2)C1)N1CC2(CC(c3nnc(C4(O)CC4)[nH]3)C2)C1` (centres unmarked) [compound 282]: the negative logarithm of the IC50 (pIC50) is 8.99. `O=C(N1CC2(CCN(c3ccc(Cl)cc3F)CC2)C1)N1CC2(CC(c3nnc(C4CC4)[nH]3)C2)C1` [compound 283] showed a pIC50 of 9.06. Then `O=C(N1CC(c2ccc(-n3ccc(C(F)(F)F)cc3=O)cc2)C1)N1CC2(CC(c3nnc(C4CC4)[nH]3)C2)C1` [compound 284], with 8.80.

The compound `Cc1cc(C(F)F)nn1-c1ccc(C2CN(C(=O)N3CC4(CC(c5nnc(C6CC6)[nH]5)C4)C3)C2)cc1` [compound 285] showed a pIC50 of 9.43.

Turning to `O=C(N1CC(c2cnc(C3CC4(CCC4)C3)cn2)C1)N1CC2(CC(c3nnc(C4CC4)[nH]3)C2)C1` [compound 286], the negative-log IC50 (pIC50) is 9.32. Then `Cc1cc(C2CC2)n(-c2ccc(C3CN(C(=O)N4CC5(CC(c6nnc(C7CC7)[nH]6)C5)C4)C3)cc2)n1` [compound 287], with 9.89; and `Cc1cc(C2CC2)nn1-c1ccc(C2CN(C(=O)N3CC4(CC(c5nnc(C6CC6)[nH]5)C4)C3)C2)cc1` [compound 288], with 9.72.

Regarding `O=C(N1CC(c2ccc(N3CCC4(C3)CC4(F)F)nc2)C1)N1CC2(CC(c3nnc(C4CC4)[nH]3)C2)C1` (centres unmarked) [compound 289], the pIC50 is 9.35. This pIC50 lies 0.37 log units lower than the previous one.

Take `O=C(N1CC(c2ccc(N3CC4(CCOC4)C3)nc2)C1)N1CC2(CC(c3nnc(C4CC4)[nH]3)C2)C1` [compound 290]: the pIC50 was 7.68. For `O=C(N1CC(c2ccc(C3CC(O)(C(F)(F)F)C3)cc2)C1)N1CC2(CC(c3nnc(C4CC4)[nH]3)C2)C1` (centres unmarked) [compound 291] the value was 9.24; for `O=C(N1CC(c2ccc(N3CC4(CCCO4)C3)nc2)C1)N1CC2(CC(c3nnc(C4CC4)[nH]3)C2)C1` [compound 293], 7.95. In turn, `Cc1cc(C)n(-c2ccc(C3CN(C(=O)N4CC5(CC(c6nnc(C7CC7)[nH]6)C5)C4)C3)cc2)n1` [compound 294] gave a pIC50 of 9.25. Turning to `O=C(N1CC(c2ccc(C3(CO)CC3)cc2)C1)N1CC2(CC(c3nnc(C4CC4)[nH]3)C2)C1` [compound 295], the negative logarithm of the IC50 (pIC50) was 8.85. With `CS(=O)(=O)c1cc(C2CN(C(=O)N3CC4(CC(c5nnc(C6CC6)[nH]5)C4)C3)C2)ccc1C1CCC1` [compound 297], the negative logarithm of the IC50 (pIC50) is 8.50. Compared with the last compound, the pIC50 is 0.35 log units lower. Then `CC(C)(O)C1CN(c2ccc(C3CN(C(=O)N4CC5(CC(c6nnc(C7CC7)[nH]6)C5)C4)C3)cn2)C1` [compound 298], with 8.10; and `CC(C)(C)Cc1ccc(C2CN(C(=O)N3CC4(CC(c5nnc(C6CC6)[nH]5)C4)C3)C2)cn1` [compound 299], with 10.30.

Consider `O=C(N1CC(c2ccc([C@H]3C[C@H](C(F)(F)F)C3)nc2)C1)N1CC2(CC(c3nnc(C4CC4)[nH]3)C2)C1` [compound 300], for which the pIC50 was 9.00. Then `O=C(N1CC(c2ccc([C@H]3C[C@H](C(F)F)C3)nc2)C1)N1CC2(CC(c3nnc(C4CC4)[nH]3)C2)C1` [compound 301], with 8.77; and `O=C(N1CC(c2ccc(N3CC4(CCCC4)C3)nc2)C1)N1CC2(CC(c3nnc(C4CC4)[nH]3)C2)C1` [compound 302], with 9.32.

As to `COc1cc(C(F)(F)F)ccc1COC1CN(C(=O)N2CC3(CC(c4nnc(C5CC5)[nH]4)C3)C2)C1` [compound 307], the pIC50 was 9.36.

On to `O=C(N1CC(OCc2ccc(S(=O)(=O)C(F)(F)F)cc2F)C1)N1CC2(CC(c3nnc(C4CC4)[nH]3)C2)C1` [compound 309], for which the pIC50 was 8.66. Then `N#Cc1c(OC2CN(C(=O)N3CC4(CC(c5nnc(C6CC6)[nH]5)C4)C3)C2)cccc1C1CC1` [compound 310], with 8.64; and `O=C(N1CC(OCc2ccc(C(F)(F)F)cc2F)C1)N1CC2(CC(c3nnc(C4CC4)[nH]3)C2)C1` [compound 311], with 8.63.

Regarding `O=C(N1CC(Oc2ccc(C3CC3)cc2)C1)N1CC2(CC(c3nnc(C4(O)CC4)[nH]3)C2)C1` [compound 312], the pIC50 was 8.53. This pIC50 and that of the compound before are within 0.2 log units of each other.

As to `O=C(N1CC(Oc2ccc(C3CC3)cc2F)C1)N1CC2(CC(c3nnc(C4(O)CC4)[nH]3)C2)C1` [compound 313], the negative-log IC50 (pIC50) is 8.34. For the compound `O=C(N1CC(Oc2ccc(C(F)(F)F)nn2)C1)N1CC2(CC(c3nnc(C4CC4)[nH]3)C2)C1` [compound 314], the pIC50 was 8.32. For `O=C(N1CC(OCc2ccc(OC(F)(F)F)cc2)C1)N1CC2(CC(c3nnc(C4CC4)[nH]3)C2)C1` [compound 315] the value was 8.31; for `O=C(N1CC(OCc2ccc(S(=O)(=O)C(F)(F)F)cc2)C1)N1CC2(CC(c3nnc(C4CC4)[nH]3)C2)C1` [compound 316], 8.21; for `N#Cc1cc(C2CC2)ccc1OC1CN(C(=O)N2CC3(CC(c4nnc(C5(O)CC5)[nH]4)C3)C2)C1` [compound 317], 8.14.

Regarding `COC(=O)C(C)(C)c1cccc(OC2CN(C(=O)N3CC4(CC(c5nnc(C6CC6)[nH]5)C4)C3)C2)c1` [compound 318], the pIC50 was 8.14.

For the compound `O=C(N1CC(Oc2ccc(C(F)(F)F)c(C3CC3)c2)C1)N1CC2(CC(c3nnc(C4(O)CC4)[nH]3)C2)C1` [compound 319], the pIC50 is 8.09. Compound `O=C(N1CC(OCc2ccc(F)cc2Cl)C1)N1CC2(CC(c3nnc(C4CC4)[nH]3)C2)C1` [compound 320] showed a pIC50 of 8.08.

Consider `O=C(N1CC(OCc2cccc(S(=O)(=O)C(F)(F)F)c2)C1)N1CC2(CC(c3nnc(C4CC4)[nH]3)C2)C1` [compound 321], for which the pIC50 is 7.97.

As to `O=C(N1CC(Oc2cccc(C3CC3)c2F)C1)N1CC2(CC(c3nnc(C4(O)CC4)[nH]3)C2)C1` [compound 322], the pIC50 was 7.93. For `O=C(N1CC(Oc2ccc(C(F)(F)F)cc2)C1)N1CC2(CC(c3nnc(C4(O)CC4)[nH]3)C2)C1` [compound 323] the value was 7.91.
